This passage reports mortality results from US20140296064A1, “PESTICIDAL METHODS USING SUBSTITUTED 3-PYRIDYL THIAZOLE COMPOUNDS AND DERIVATIVES FOR COMBATING ANIMAL PESTS I” (BASF SE, priority 2011, published 2014).

Type in all cases: in vivo
For test [1], the system named is Cowpea Aphid (Aphis craccivora). Put plainly: Cowpea aphid potted plant spray test. The following applies: potted cowpea plants sprayed, population reduction assessed after 24, 72 and 120 hours, read-out: mortality in comparison with untreated controls. The method, then:
B.4 Cowpea Aphid (Aphis craccivora)
The active compound was dissolved at the desired concentration in a mixture of 1:1 (vol:vol) distilled water: acetone. The test solution was prepared at the day of use.
Potted cowpea plants colonized with approximately 100-150 aphids of various stages were sprayed after the pest population had been recorded. Population reduction was assessed after 24, 72, and 120 hours.

Test [2] concerns Silverleaf Whitefly (bemisia argentifolii). The test is described as follows: Silverleaf whitefly cotton plant spray test. Particulars: 72 h, cotton plants sprayed, whitefly adults, assessed 3 days after treatment, read-out: mortality in comparison with untreated controls. An excerpt:
B.5 Silverleaf Whitefly (bemisia argentifolii)
The active compounds were formulated in cyclohexanone as a 10,000 ppm solution supplied in tubes. The tubes were inserted into an automated electrostatic sprayer equipped with an atomizing nozzle and they serve as stock solutions for which lower dilutions are made in 50% acetone: 50% water (v/v). A nonionic surfactant (Kinetic®) was included in the solution at a volume of 0.01% (v/v).
Cotton plants at the cotyledon stage (one plant per pot) were sprayed by an automated electrostatic plant sprayer equipped with an atomizing spray nozzle. The plants were dried in the sprayer fume hood and then removed from the sprayer. Each pot was placed into a plastic cup and about 10 to 12 whitefly adults (approximately 3-5 days old) were introduced. The insects were collected using an aspirator and a nontoxic Tygon® tubing connected to a barrier pipette tip. The tip, containing the collected insects, were then gently inserted into the soil containing the treated plant, allowing insects to crawl out of the tip to reach the foliage for feeding. Cups were covered with a reusable screened lid. Test plants were maintained in a growth room at about 25° C. and about 20-40% relative humidity for 3 days, avoiding direct exposure to fluorescent light (24 hour photoperiod) to prevent trapping of heat inside the cup. Mortality was assessed 3 days after treatment, compared to untreated control plants.

The subject of test [3] is Green Peach Aphid (Myzus persicae). The test is described as follows: Green peach aphid artificial diet test (systemic). The following applies: 72 h, in aphid diet under artificial membrane, assessed after 3 days, read-out: mortality in comparison with untreated controls. An excerpt: B.2 Green Peach Aphid (Myzus persicae)
For evaluating control of green peach aphid (Myzus persicae) through systemic means the test unit consisted of 96-well-microtiter plates containing liquid artificial diet under an artificial membrane.
The compounds were formulated using a solution containing 75% v/v water and 25% v/v DMSO. Different concentrations of formulated compounds were pipetted into the aphid diet, using a custom built pipetter, at two replications. After application, 5-8 adult aphids were placed on the artificial membrane inside the microtiter plate wells. The aphids were then allowed to suck on the treated aphid diet and were incubated at about 23±1° C. and about 50±5% relative humidity for 3 days. Aphid mortality and fecundity was then visually assessed.

The test system of test [4] is Vetch aphid (Megoura viciae). The test is described as follows: Vetch aphid leaf disk spray test (contact or systemic). The following applies: foliar, 120 h, sprayed broad bean leaf disks, assessed after 5 days, read-out: mortality in comparison with untreated controls. The procedure:
B.1 Vetch aphid (Megoura viciae)
For evaluating control of vetch aphid (Megoura viciae) through contact or systemic means the test unit consisted of 24-well-microtiter plates containing broad bean leaf disks.
The compounds were formulated using a solution containing 75% v/v water and 25% v/v DMSO. Different concentrations of formulated compounds were sprayed onto the leaf disks at 2.5 μl, using a custom built micro atomizer, at two replications. After application, the leaf disks were air-dried and 5-8 adult aphids were placed on the leaf disks inside the microtiter plate wells. The aphids were then allowed to suck on the treated leaf disks and were incubated at about 23±1° C. and about 50±5% relative humidity for 5 days. Aphid mortality and fecundity were then visually assessed.

Test [5] deals with Cotton aphid (Aphis gossypi). The test is described as follows: Cotton aphid cotyledon dip test. The following applies: 120 h, cotton cotyledons dipped, mortality counts after 5 days, read-out: mortality in comparison with untreated controls. The text has this:
B.3 Cotton aphid (Aphis gossypi)
The active compounds were formulated in 50:50 (vol:vol) acetone: water and 100 ppm Kinetica™ surfactant.
Cotton plants at the cotyledon stage (one plant per pot) were infested by placing a heavily infested leaf from the main colony on top of each cotyledon. The aphids were allowed to transfer to the host plant overnight, and the leaf used to transfer the aphids was removed. The cotyledons were dipped in the test solution and allowed to dry. After 5 days, mortality counts were made.

A value given as a limit tells only on which side of the number the result lay.

For orientation: mortality means the share of the test organisms that died. Consider `CN(C)C(=O)c1sc(-c2cccnc2)nc1C(F)(F)F` [C.1, 2-Pyridin-3-yl-4-trifluoromethyl-thiazole-5-carboxylic acid dimethylamide], for which the mortality at 500 ppm in test [1], in test [2] and in test [3] was ≥ 75% each time.
As for `CSCCNC(=O)c1sc(-c2cccnc2)nc1C(F)(F)F` [C.2, 2-Pyridin-3-yl-4-trifluoromethyl-thiazole-5-carboxylic acid (2-methylsulfanyl-ethyl)amide], the mortality at 500 ppm in test [1] and in test [3] was ≥ 75% throughout. In addition, in test [4], the mortality at 800 ppm was ≥ 75%.
Regarding `CCN(CCSC)C(=O)c1sc(-c2cccnc2)nc1C(F)(F)F` [C.3, 2-Pyridin-3-yl-4-trifluoromethyl-thiazole-5-carboxylic acid ethyl-(2-methylsulfanyl-ethyl)-amide], the mortality at 500 ppm in test [1] and in test [5] was ≥ 75% in each case.
For the molecule `CCN(CC[S+](C)[O-])C(=O)c1sc(-c2cccnc2)nc1C(F)(F)F` (centres unmarked) [C.4, 2-Pyridin-3-yl-4-trifluoromethyl-thiazole-5-carboxylic acid ethyl-(2-methanesulfinyl-ethyl)-amide], the mortality at 500 ppm in test [1] and in test [2] was ≥ 75% throughout.
`CCN(CCS(C)(=O)=O)C(=O)c1sc(-c2cccnc2)nc1C(F)(F)F` [C.5, 2-Pyridin-3-yl-4-trifluoromethyl-thiazole-5-carboxylic acid ethyl-(2-methanesulfonyl-ethyl)-amide]: the mortality at 500 ppm in test [1] is ≥ 75%.
Consider `O=C(NC1CSC1)c1sc(-c2cccnc2)nc1C(F)(F)F` [C.6, 2-Pyridin-3-yl-4-trifluoromethyl-thiazole-5-carboxylic acid thietan-3-ylamide], for which the mortality at 800 ppm in test [4] was ≥ 75%.
For the molecule `CCN(C(=O)c1sc(-c2cccnc2)nc1C(F)(F)F)C1CSC1` [C.7, 2-Pyridin-3-yl-4-trifluoromethyl-thiazole-5-carboxylic acid ethyl-thietan-3-yl-amide], the mortality at 500 ppm in test [1] and in test [2] was ≥ 75% in each case.
As to `CCN(C(=O)c1sc(-c2cccnc2)nc1C(F)(F)F)C1C[S+]([O-])C1` (centres unmarked) [C.8, 2-Pyridin-3-yl-4-trifluoromethyl-thiazole-5-carboxylic acid ethyl-(1-oxo-1lambda*4*-thietan-3-yl)-amide], the mortality at 500 ppm in test [2] is ≥ 75%.
In the case of `CN(C)C(=O)c1sc(-c2cccnc2)nc1Cl` [C.11, 4-Chloro-N, N-dimethyl-2-(3-pyridyl)thiazole-5-carboxamide], the mortality at 500 ppm in test [1], in test [2], in test [3] and in test [5] was ≥ 75% each time. In test [4], the mortality at 800 ppm was ≥ 75%.
